The source of these data is patent publication US20120232070A1, “Use of Indole Derivatives as Nurr-1 Activators for the Application Thereof as a Medicament for the Treatment of Parkinson's Disease” (Laboratoires Fournier SA, priority 2009, published 2012).

Data set [1] addresses hNurr1_RXRγFL (NURR1/RXRγ heterodimer) (Homo sapiens, UniProt P43354+P48443). The data set is described as follows: Transactivation assay in Cos-7 cells, NURR-1-Gal4 / RXRγ, luciferase reporter. The data set is classed as cell-based. In short, it runs like this: (§1)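 Cos-7 cells co-transfected with human NURR-1-Gal4 chimera, human RXRα or RXRγ, and 5Gal4pGL3-TK-Luc reporter; compounds added at 10^−4 to 3·10^−10 M final, overnight incubation, luciferase read. Induction over each heterodimer's baseline expressed as % of reference RXR agonist XCT0135908 (2·10^−5 M) taken as 100%.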
In general terms: A reporter such as luciferase makes a cellular process visible.

Data set [2] deals with hNurr1_RXRαFL (NURR1/RXRα heterodimer) (Homo sapiens, UniProt P19793+P43354). The data set is described as follows: Transactivation assay in Cos-7 cells, NURR-1-Gal4 / RXRα, luciferase reporter. The data set is classed as cell-based. A digest of the protocol: as §1
Sequence of hNurr1_RXRαFL (NURR1/RXRα heterodimer) (P19793 whole entry, the tested form may be a part): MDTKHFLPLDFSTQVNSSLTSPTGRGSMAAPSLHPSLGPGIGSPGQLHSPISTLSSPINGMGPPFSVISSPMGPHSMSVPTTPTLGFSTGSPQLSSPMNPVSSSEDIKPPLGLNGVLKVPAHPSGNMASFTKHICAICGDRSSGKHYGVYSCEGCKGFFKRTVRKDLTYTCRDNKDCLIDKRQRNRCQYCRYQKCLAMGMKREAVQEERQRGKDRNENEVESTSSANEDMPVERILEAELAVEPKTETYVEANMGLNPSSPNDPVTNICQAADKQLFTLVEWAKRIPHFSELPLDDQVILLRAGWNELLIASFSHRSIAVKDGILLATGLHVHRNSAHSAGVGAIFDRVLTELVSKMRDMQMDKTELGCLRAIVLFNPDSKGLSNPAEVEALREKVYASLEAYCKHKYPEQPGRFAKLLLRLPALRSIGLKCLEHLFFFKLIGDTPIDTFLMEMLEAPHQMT
Sequence of hNurr1_RXRαFL (NURR1/RXRα heterodimer) (P43354 328-598): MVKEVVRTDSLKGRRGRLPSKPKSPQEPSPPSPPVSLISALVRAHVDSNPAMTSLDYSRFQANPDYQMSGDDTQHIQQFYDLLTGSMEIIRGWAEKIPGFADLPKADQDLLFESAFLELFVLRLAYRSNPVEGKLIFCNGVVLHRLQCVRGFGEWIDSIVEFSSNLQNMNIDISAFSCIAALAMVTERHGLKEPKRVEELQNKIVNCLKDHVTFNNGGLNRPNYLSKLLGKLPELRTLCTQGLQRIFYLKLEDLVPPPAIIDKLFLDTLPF
Data set [3] in a line: Plasma and cerebral pharmacokinetic profile after oral administration. The format is in vivo, male C57B16 mouse. The conditions noted are these: oral administration 10 mg/kg in the mouse. As to the method:
A first series of in vivo assays were conducted with some compounds according to the invention, for the purpose of determining their plasma and cerebral pharmacokinetic profile in the male C57B16 mouse and thus verify that the compounds were capable of crossing the blood-brain barrier. The following procedure was used.
Male C57B16 mice (25-30 g) obtained from the Janvier establishment, Le Genest-St-Isle, France were used for this study (12 mice per dose). The animals were fed with standard rodent feed (Purina Mills, St. Louis, Mo.), placed in cages and subjected to light/darkness cycles of 12 h/12 h, the temperature of the room being maintained at 22±2° C. and the humidity at 55±10%. The mice were not fasting before administration. Water was supplied ad libitum throughout the study. The assayed compound was administered orally at 10 mg/kg. For oral administration at 10 mg/kg, the animals were force-fed with 10 mL/kg of a suspension of the assayed compound, prepared in methylcellulose 400 cp 1%. The animals were euthanized by anaesthesia at intervals of 15 min, 30 min, 1 h, 3 h, 6 h and 8 h after force-feeding. At each interval, blood was collected and the brain was removed from each euthanized animal. 1 mL of blood collected in 1.5 mL tubes containing 20 μL of evaporated anticoagulant (solution of sodium heparinate at 1000 IU/mL) was centrifuged at 4500 g for 3 min, obtaining about 400 μL of plasma. The plasma was distributed in 2 aliquots of 200 μL which were stored at −20° C. until extraction by protein precipitation and then analysis by liquid chromatography coupled with tandem mass spectrometry (LC-MS/MS) for quantification of the assayed compound. The brains were immersed in liquid nitrogen directly after removal, then stored at −20° C. for analysis. The brains were then ground in the presence of aqueous/organic solvent mixture to obtain a homogenate. These homogenates were then centrifuged and the assayed compound was extracted from the supernatant by liquid-liquid extraction, then quantified by LC-MS/MS.
The pharmacokinetic parameters were determined according to a non-compartmental approach using Excel. The area under curve (AUC0-t) was determined by the linear trapezoidal method. This method allows estimation of the integral of the concentrations over an interval of time (AUC0-t) and is based on the sum of the areas of the trapeziums delimited by the concentrations measured at the time of sampling (example AUC0-8 h=AUC0-0.25 h+AUC0.25 h-0.5 h+AUC0.5 h-t+AUCt-8 h). The penetration of the compounds through the blood-brain barrier is assessed from the ratio of the AUC measured in the brain to that measured in plasma. As an example, with the compounds of examples 32 and 49, the following results were obtained: […]

Data set [4] deals with mice treated with 1-methyl-4-phenyl-1,2,3,6-tetrahydropyridine (MPTP). Briefly: MPTP mouse model, dopamine in the striatum. The data set is classed as in vivo, male C57BL6/J mice. The conditions noted are these: oral, twice a day for 11 days; MPTP 25 mg/kg i.p. once a day for 5 days; FIGS. 1 and 2. As to the method:
The compounds of examples 32 and 49 were assayed on a model of mice treated with 1-methyl-4-phenyl-1,2,3,6-tetrahydropyridine (MPTP) in order to confirm their potential activities. MPTP is a neurotoxin which causes permanent symptoms of Parkinson's disease by destroying certain neurons in the substantia nigra of the brain. The following procedure was used.
Male C57BL6/J mice aged 10-12 weeks at the start of the studies were distributed in groups of 8 animals. The compounds were administered orally, twice a day for a total of 11 days. Administration began 3 days before the treatment with the MPTP toxin at 25 mg/kg. MPTP was administered once a day by intraperitoneal injection for 5 days. Administration of the assayed compounds was continued for 3 days after the treatment with MPTP. One group of mice received the carrier only (0.5% solution of methylcellulose). The animals were euthanized after the last force-feeding and the striatum was removed. Dopamine was extracted from the striatum and the amount of dopamine (DA) expressed in ng per g of striatum (mean±SEM) was measured by high-performance liquid chromatography (HPLC) with electrochemical detection.

Where [5] appears, read: Cos-7 cells, overnight incubation.

Sequence of hNurr1_RXRγFL (NURR1/RXRγ heterodimer) (P43354 328-598): as above
Sequence of hNurr1_RXRγFL (NURR1/RXRγ heterodimer) (P48443 whole entry, the tested form may be a part): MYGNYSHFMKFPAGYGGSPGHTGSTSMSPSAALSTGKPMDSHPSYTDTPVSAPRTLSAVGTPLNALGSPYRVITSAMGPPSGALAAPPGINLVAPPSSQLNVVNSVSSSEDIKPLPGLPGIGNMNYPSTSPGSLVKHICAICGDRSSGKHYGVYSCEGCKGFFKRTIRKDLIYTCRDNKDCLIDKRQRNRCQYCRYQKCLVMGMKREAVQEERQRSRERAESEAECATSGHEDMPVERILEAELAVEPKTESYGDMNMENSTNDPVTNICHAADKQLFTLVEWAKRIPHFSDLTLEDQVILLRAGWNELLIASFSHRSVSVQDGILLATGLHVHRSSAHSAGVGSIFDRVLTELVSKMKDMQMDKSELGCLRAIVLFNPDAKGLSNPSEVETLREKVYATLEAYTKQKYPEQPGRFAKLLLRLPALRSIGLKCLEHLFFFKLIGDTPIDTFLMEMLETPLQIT

As usually defined, the EC50 is the concentration needed to bring the measured effect to its halfway point. For the compound `CC(C)c1cccc(S(=O)(=O)n2c(Cc3ccc(C(=O)O)cc3)cc3cc(C(F)(F)F)ccc32)c1` [Example 32, 4-[[1-[[3-(1-methylethyl)phenyl]sulfonyl]-5-(trifluoromethyl)-1H-indol-2-yl]methyl]benzoic acid], the Emax in data set [1] (COS-7, read-out: hNurr1_RXRγFL Eff (%), efficacy in % relative to the reference XCT0135908 at 2·10^−5 M (=100%)) amounted to 62%. Also, the concentration giving a half-maximal response (EC50) in data set [1] (setting [5]) amounted to 219 nM; in data set [2] (setting [5]), 103 nM. Besides, the “hNurr1_RXRαFL Eff (%)” value in data set [2] (efficacy in % relative to the reference XCT0135908 at 2·10^−5 M (=100%)) came out at 68%. Further, the Kp in data set [3] (male, C57B16, brain/plasma, read-out: Ratio AUCbrain/AUCplasma) is 0.8. This compound also came in with an AUCbrain in data set [3] of 3763 ng·h/mL. In data set [4], the “effect on the MPTP-induced decrease of dopamine in the striatum” value is given as “dose-dependent decrease in the action of MPTP”.
